Data on two compounds can be found in patent publication US7288671B2, “Interleukin-1 and tumor necrosis factor-α modulators, synthesis of said modulators and their enantiomers and methods of using said modulators” (Nereus Pharmaceuticals, Inc., priority 1999, dated 2007).

Where two headings read alike, the source gives them in different places.

The subject of one data set is rat. To be noted: cited from earlier work.
Another data set has as its system IL-6. To be noted: same conditions; cited from earlier work.
For the next data set, the system named is mice. To be noted: cited from earlier work.
In another data set the test system is IL-1 production. To be noted: approximately 0.1 to approximately 1.0 microgram/ml for 48 hours; cited from earlier work.
The next data set relates to IL-6 synthesis. As to the kind of experiment: SAC-induced IL-6 synthesis, RAW 264.7 macrophage cells. The class given is cell-based, Murine. The procedure:
Murine macrophage cells RAW 264.7 (1×10^6/ml) were pretreated for 30-60 minutes with varying doses of the synthetic compound of Formula (I), the synthetic compound of formula (I) and a panel of analogs (diluted in 0.5% DMSO) prior to stimulation with various agents such as lipopolysaccharide (LPS) or a gram positive agent like heat-killed Staph aureus (SAC). Supernatants collected over a 72-hour period will be assayed for the levels of TNF-α, IL-1, IL-6, IL-10, IL-12 and other cytokines either by elisa or bioassay. Additional studies to evaluate the effects of the synthetic compound of Formulae (I), (II), (IIA) and (IIB) on cytokine signaling pathways such as, for example, Caspase-activity (Nr-1, Nr.3), transcription factors such as NF-kB, MAP-kinase activity (p38, ERK and JNK) will also be performed.

The next data set relates to TNF-α production. To be noted: approximately 0.1 to approximately 1.0 microgram/ml for 48 hours; cited from earlier work.
The test system of the next data set is cirrhosis. To be noted: mice; cited from earlier work.
The test system of a further data set is silicosis. To be noted: mice; cited from earlier work.
A further data set relates to IFN-γ (interferon-gamma). To be noted: same conditions; cited from earlier work.
Data set [1] deals with iNOS (inducible nitric oxide synthase). To be noted: cited from earlier work.
The test system of a further data set is COX-2 (cyclooxygenase-2). To be noted: cited from earlier work.

Take `C=C[C@@]1(C)CC=C2[C@@H](CC[C@@H]3[C@](C)(C(=O)O)CCC[C@@]23C)C1` [Formula (I), acanthoic acid]: the “minimum lethal dose (MLD)” value with rat (rat, in vivo) is given as 1000 mg/kg. Besides, the toxicity entry in the data set on rat (rats) is on record as “minimal toxicity”; with mice, “minimal toxicity”; in the data set on mice (listed as 1), “very little toxicity”. In addition, in the data set on IL-6, the “production of IL-6” value is listed as “not affected”. In the data set with mice (orally), the LD is given as > 300 mg/100 g of body weight. Further, the “inhibition of the IL-1 production” value with IL-1 production is “approximately 90%”. Besides, the “inhibition of IL-6 synthesis” value in the data set with IL-6 synthesis is “neither analog TTL1 nor TTL3 significantly inhibited IL-6 synthesis”. Further, the “inhibition of the TNF-α production” value with TNF-α production is reported as “approximately 90%”. In addition, the “cirrotic liver cells (histologic analysis)” value in the data set on cirrhosis is reported as “remarkable recovery of the cirrotic liver cells”. In the data set on silicosis, the “fibrotic granulomas (histologic analysis)” value was “substantial reduction of fibrotic granulomas”. In the data set on IFN-γ (interferon-gamma), the “production of IFN-γ” value is recorded as “not affected”.

For `CC1(C)CC[C@]2(C(=O)O)CC[C@]3(C)[C@H](C(=O)C=C4[C@@]5(C)C=C(C#N)C(=O)C(C)(C)[C@@H]5CC[C@]43C)[C@@H]2C1` [Compound 54, 2-cyano-3,12-dioxoolean-1,9-dien-28-oic acid], the “fold more active than any other known triterpenoid in suppressing iNOS” value in data set [1] is listed as 500 fold. Also, in the data set with COX-2 (cyclooxygenase-2), the “fold more active than any other known triterpenoid in suppressing COX-2” value is listed as 500 fold.
